Assay results published in patent US20050158264A1, “Sympathetic nerve-stimulating fragrant compositions” (SHISEIDO COMPANY, LTD., priority 2000, published 2005).
Structures can show the parent of a compound that is named as a salt.

Assays:
[1] = tested on: uncoupling protein-3; details: 70 mg subcutaneous tissue from 6-week-old rats; caffeine 1 mM, noradrenaline 0.5 μg/ml; FIG. 6
[2] = tested on: sympathetic nerves; assay: Measurement of sympathetic nerve activity by systolic blood pressure fluctuation analysis (FLUCLET) while smelling fragrance; assay type: in vivo; details: subjects smelling fragrance 3 minutes vs 3 minutes without fragrance, FIG. 1-4
Description: Cardiac rate intervals (heartbeat intervals) and blood pressure changes (fluctuations) are complex even during resting periods, and are governed by several systems including the sympathetic and parasympathetic nervous systems. It is known that frequency analysis of heartbeat intervals and blood pressure fluctuations can used to calculate the activity of each of these systems. The high-frequency component of cardiac rate fluctuation indicates parasympathetic nerve activity while the low-frequency component indicates the combined activity of the sympathetic and parasympathetic nervous systems, and the low-frequency component of blood pressure fluctuation indicates sympathetic nerve activity (from material by Dainippon Pharmaceutical Co.). Sympathetic nerve activity was measured by analysis of systolic blood pressure fluctuation using an autonomic nervous system activity analysis system (FLUCLET, product of Dainippon Pharmaceutical Co.). Subjects were allowed to rest for 5 minutes in a thermostatic room at room temperature (24° C.), the blood pressure value was measured on the upper arm and used to correct the blood pressure value at the wrist, and then the wrist blood pressure was continuously measured thereafter. Cotton was placed under the nostrils at the start of measurement, the blood pressure was measured for 3 minutes without fragrant substance, and then the nose cotton was impregnated with fragrant substance and the blood pressure was measured for 3 minutes.

| Compound | expression of uncoupling protein-3 [1] | effect of fragrance on relative sympathetic nerve activity (in words) [2] |
| --- | --- | --- |
| Cn1c(=O)c2c(ncn2C)n(C)c1=O [caffeine] | increased expression |  |
| CCOC(=O)CC(O)(CC(=O)OCC)C(=O)OCC [TEC, triethyl citrate, reference compound] |  | no change |
| O=C(OCc1ccccc1)c1ccccc1 [benzyl benzoate] |  | increased effect of sympathetic nerve activity |
| C=C(C)[C@H]1CC=C(C)CC1 [limonene] |  | increased effect of sympathetic nerve activity |
| pinene |  | increased effect of sympathetic nerve activity |
| C=CC(=C)CCC=C(C)C [myrcene] |  | increased effect of sympathetic nerve activity |
